Measured values as given in patent US8445409B2, “Use of 5-benzyloxymethyl-1,2-isoxazoline derivatives as a herbicide” (Moghu Research Center Ltd., priority 2007, dated 2013).
“Also recorded” adds a separate entry of the source.

What was measured:
Large crabgrass [1] = test: Upland pot test, pre-/post-emergence spray, visual rating; assay type: in vivo, large crabgrass (DIGSA); details: 2 weeks after spray, 0-10 scale (10=completely killed)
From the text: (§1) To a rectangular plastic pot having a surface area of 300 cm^2, mixed soils including blend bed soil (Boonong, Horticultural Bed Soil No. 3) and sandy loam soil were filled (mixing ratio, 1:1). Seeds of the eight different types of weeds including gramineous weed such as barnyardgrass, large crabgrass, green foxtail, fall panicum, and broadleaf weed such as common cocklebur, velvetleaf, Indian joint-vetch, and morningglory were sown. To the other pot containing the same soil mixture, seeds of the five different types of crops including corn, soybean, cotton, wheat and rice were sown. Pots were kept in a greenhouse of which temperature was maintained at 25˜30° C. (day) or 15˜25° C. (night), and regularly watered.
(§2) After fourteen days and when the crops and the weeds reached their three-leaf stage, the other set of a crop pot and a weed pot were prepared by the same method as described above. Then, “test substance” was sprayed thereto. In this case, spray treatment to the plants after they have grown for two weeks corresponded to post-emergence treatment while spray treatment to the seeds right after the sowing corresponded to pre-emergence treatment. Spray was carried out by using a track sprayer (R&D Sprayer, USA) equipped with a Teejet 8002 nozzle (Spraying Systems Co., USA). Spray volume was adjusted to 300 L/ha. The spray solution was prepared by dissolving the “test substance” in acetone and adding the same volume of 0.2% (v/v) Tween 20 aqueous solution. Dosage of the test substance was 500, 250, 125, 62.5 or 31.3 g/ha. Two weeks after the spray of the test substance, efficacy and phytotoxic effect to the crops and the weeds were visually measured based on a 0 to 10 scale (0: no efficacy, 10: completely killed).

Cocklebur = test: as above; assay type: in vivo, common cocklebur (XANST); details: 2 weeks after spray, 0-10 scale (10=completely killed)
From the text: as §1, §2

Velvetleaf = test: as above; assay type: in vivo, velvetleaf (ABUTH); details: 2 weeks after spray, 0-10 scale (10=completely killed)
From the text: as §1, §2

Morningglory = test: as above; assay type: in vivo, morningglory (IPOSP); details: 2 weeks after spray, 0-10 scale (10=completely killed)
From the text: as §1, §2

Annual bluegrass = test: Herbicidal activity at different growth stages, fresh weight suppression; assay type: in vivo; details: for Suppression ratio relative to the biomass of the untreated group: Annual bluegrass 1 leaf / Suppression ratio relative to the biomass of the untreated group: Annual bluegrass 2 leaf / Suppression ratio relative to the biomass of the untreated group: Annual bluegrass 3 leaf / Suppression ratio relative to the biomass of the untreated group: Annual bluegrass 4 leaf / Suppression ratio relative to the biomass of the untreated group: Annual bluegrass PRE: fresh weight two weeks after treatment
Experimental: To a cup pot having a surface area of 100 cm^2 wherein mixed soils including blend bed soil (Boonong, Horticultural Bed Soil No. 3) and sandy loam soil were filled (mixing ratio, 1:1), seeds of large crabgrass and annual bluegrass were sown consecutively at an one week interval. The pots were moistened by sub-irrigation, and kept in a greenhouse maintained at 25˜30° C. (day) or 15˜25° C. (night). The said weeds were grown to various growth stages from pre-emergence to the four-leaf stage. […] Spray volume was adjusted to 2,000 L/ha. The method to spray of the test substance and prepare spray solutions were the same as described above. The reference herbicide was used after it was diluted with 0.2% (v/v) Tween 20 aqueous solution. The test was conducted in a randomized block design with three replicates. Two weeks after the treatment, plant parts remained above the pot soil surface were cut and the fresh weight was weighed. Results are given by a suppression ratio relative to the biomass that was obtained from the untreated group (see, Table 3).

[2] = test system: gramineous weeds such as barnyardgrass, green foxtail, large crabgrass and fall panicum; test: Upland pot test, gramineous weeds as a group; assay type: in vivo
From the text: as §1, §2

Large crabgrass [3] = test: Upland pot test, pre-/post-emergence spray, visual rating; assay type: in vivo, large crabgrass (DIGSA); details: pre-emergence application, 0.06~0.12 kg/ha
[4] = post-emergence foliar spray at three leaf stage, 31.2 g/ha
[5] = post-emergence foliar spray at three leaf stage, 62.5 g/ha
[6] = post-emergence foliar spray at three leaf stage, 125 g/ha
[7] = post-emergence foliar spray at three leaf stage, 250 g/ha
[8] = post-emergence foliar spray at three leaf stage, 500 g/ha
[9] = pre-emergence soil treatment, 31.2 g/ha
[10] = pre-emergence soil treatment, 62.5 g/ha
[11] = pre-emergence soil treatment, 125 g/ha
[12] = pre-emergence soil treatment, 250 g/ha
[13] = pre-emergence soil treatment, 500 g/ha

Cc1ccsc1C1=NOC(C)(COCc2c(F)cccc2F)C1 (centres unmarked) [test substance, 5-(2,6-difluorobenzyl)oxymethyl-5-methyl-3-(4-methylthiophen-5-yl)-1,2-isoxazoline] was tested, and the “Visual measurement: Gramineous weed, Large crabgrass” value (“Visual measurement: Gramineous weed” below) (Large crabgrass [1]; [4]) was 1, the “Visual measurement: Gramineous weed” value (Large crabgrass [1]; [5]) was 3 and the “Visual measurement: Gramineous weed” value (Large crabgrass [1]; [6]) was 5. For the same compound, the “Visual measurement: Gramineous weed” value (Large crabgrass [1]; [7]) was 6, the “Visual measurement: Gramineous weed” value (Large crabgrass [1]; [8]) was 9 and the “Visual measurement: Gramineous weed” value (Large crabgrass [1]; [9]) was 1. The “Visual measurement: Gramineous weed” value (Large crabgrass [1]; [10]) was 9, the “Visual measurement: Gramineous weed” value (Large crabgrass [1]; [11]) was 9 and the “Visual measurement: Gramineous weed” value (Large crabgrass [1]; [12]) was 10. For the same compound, the “Visual measurement: Gramineous weed” value (Large crabgrass [1]; [13]) was 10, the “Visual measurement: Broadleaf weed, Cocklebur” value (shortened to “Visual measurement … Cocklebur”) (Cocklebur; [4]) was 0 and the “Visual measurement … Cocklebur” value (Cocklebur; [5]) was 0. For the same compound, the “Visual measurement … Cocklebur” value (Cocklebur; [6]) was 1, the “Visual measurement … Cocklebur” value (Cocklebur; [7]) was 3 and the “Visual measurement … Cocklebur” value (Cocklebur; [8]) was 7. For the same compound, the “Visual measurement … Cocklebur” value (Cocklebur; [9]) was 0, the “Visual measurement … Cocklebur” value (Cocklebur; [10]) was 0 and the “Visual measurement … Cocklebur” value (Cocklebur; [11]) was 0. For the same compound, the “Visual measurement … Cocklebur” value (Cocklebur; [12]) was 0, the “Visual measurement … Cocklebur” value (Cocklebur; [13]) was 0 and the “Visual measurement: Broadleaf weed, Velvetleaf” value (from here on “Visual measurement … Velvetleaf”) (Velvetleaf; [4]) was 0. The “Visual measurement … Velvetleaf” value (Velvetleaf; [5]) was 0, the “Visual measurement … Velvetleaf” value (Velvetleaf; [6]) was 1 and the “Visual measurement … Velvetleaf” value (Velvetleaf; [7]) was 3. The “Visual measurement … Velvetleaf” value (Velvetleaf; [8]) was 6, the “Visual measurement … Velvetleaf” value (Velvetleaf; [9]) was 0 and the “Visual measurement … Velvetleaf” value (Velvetleaf; [10]) was 0. The “Visual measurement … Velvetleaf” value (Velvetleaf; [11]) was 0, the “Visual measurement … Velvetleaf” value (Velvetleaf; [12]) was 0 and the “Visual measurement … Velvetleaf” value (Velvetleaf; [13]) was 0. The “Visual measurement: Broadleaf weed, Morningglory” value (from here on “Visual measurement … Morningglory”) (Morningglory; [4]) was 0, the “Visual measurement … Morningglory” value (Morningglory; [5]) was 0 and the “Visual measurement … Morningglory” value (Morningglory; [6]) was 0. For the same compound, the “Visual measurement … Morningglory” value (Morningglory; [7]) was 1, the “Visual measurement … Morningglory” value (Morningglory; [8]) was 3 and the “Visual measurement … Morningglory” value (Morningglory; [9]) was 0. The “Visual measurement … Morningglory” value (Morningglory; [10]) was 0, the “Visual measurement … Morningglory” value (Morningglory; [11]) was 1 and the “Visual measurement … Morningglory” value (Morningglory; [12]) was 2. The “Visual measurement … Morningglory” value (Morningglory; [13]) was 2, the “Suppression ratio relative to the biomass of the untreated group: Annual bluegrass 1 leaf” value (Annual bluegrass; 1 kg/ha) was 97% and the “Suppression ratio relative to the biomass of the untreated group: Annual bluegrass 2 leaf” value (Annual bluegrass; 1 kg/ha) was 93%. The “Suppression ratio relative to the biomass of the untreated group: Annual bluegrass 3 leaf” value (Annual bluegrass; 1 kg/ha) was 66%, the “Suppression ratio relative to the biomass of the untreated group: Annual bluegrass 4 leaf” value (Annual bluegrass; 1 kg/ha) was 55% and the “Suppression ratio relative to the biomass of the untreated group: Annual bluegrass PRE” value (Annual bluegrass; 1 kg/ha) was 100%. For the same compound, the “Suppression ratio relative to the biomass of the untreated group: Annual bluegrass 1 leaf” value (Annual bluegrass; 2 kg/ha) was 99%, the “Suppression ratio relative to the biomass of the untreated group: Annual bluegrass 2 leaf” value (Annual bluegrass; 2 kg/ha) was 95% and the “Suppression ratio relative to the biomass of the untreated group: Annual bluegrass 3 leaf” value (Annual bluegrass; 2 kg/ha) was 69%. For the same compound, the “Suppression ratio relative to the biomass of the untreated group: Annual bluegrass 4 leaf” value (Annual bluegrass; 2 kg/ha) was 60%, the “Suppression ratio relative to the biomass of the untreated group: Annual bluegrass PRE” value (Annual bluegrass; 2 kg/ha) was 100% and the “Suppression ratio relative to the biomass of the untreated group: Annual bluegrass 1 leaf” value (Annual bluegrass; .12 kg/ha) was 37%. The “Suppression ratio relative to the biomass of the untreated group: Annual bluegrass 2 leaf” value (Annual bluegrass; .12 kg/ha) was 35%, the “Suppression ratio relative to the biomass of the untreated group: Annual bluegrass 3 leaf” value (Annual bluegrass; .12 kg/ha) was 0% and the “Suppression ratio relative to the biomass of the untreated group: Annual bluegrass 4 leaf” value (Annual bluegrass; .12 kg/ha) was 0%. The “Suppression ratio relative to the biomass of the untreated group: Annual bluegrass PRE” value (Annual bluegrass; .12 kg/ha) was 95%, the “Suppression ratio relative to the biomass of the untreated group: Annual bluegrass 1 leaf” value (Annual bluegrass; .25 kg/ha) was 95% and the “Suppression ratio relative to the biomass of the untreated group: Annual bluegrass 2 leaf” value (Annual bluegrass; .25 kg/ha) was 82%. The “Suppression ratio relative to the biomass of the untreated group: Annual bluegrass 3 leaf” value (Annual bluegrass; .25 kg/ha) was 18%, the “Suppression ratio relative to the biomass of the untreated group: Annual bluegrass 4 leaf” value (Annual bluegrass; .25 kg/ha) was 2% and the “Suppression ratio relative to the biomass of the untreated group: Annual bluegrass PRE” value (Annual bluegrass; .25 kg/ha) was 100%. The “Suppression ratio relative to the biomass of the untreated group: Annual bluegrass 1 leaf” value (Annual bluegrass; .5 kg/ha) was 96%, the “Suppression ratio relative to the biomass of the untreated group: Annual bluegrass 2 leaf” value (Annual bluegrass; .5 kg/ha) was 90% and the “Suppression ratio relative to the biomass of the untreated group: Annual bluegrass 3 leaf” value (Annual bluegrass; .5 kg/ha) was 61%. The “Suppression ratio relative to the biomass of the untreated group: Annual bluegrass 4 leaf” value (Annual bluegrass; .5 kg/ha) was 37%, the “Suppression ratio relative to the biomass of the untreated group: Annual bluegrass PRE” value (Annual bluegrass; .5 kg/ha) was 100% and the “Suppression of annual bluegrass” value (Annual bluegrass; PRE to 2-leaf stage, 0.5 kg/ha or above) was no less than 90%. The “Control of annual bluegrass (in words)” value (Annual bluegrass; over three-leaf stage) was “suppressed but were not completely controlled”, the “Control of gramineous weeds (in words)” value ([2]; post-emergence treatment at three-leaf stage, FIG. 2) was “well controlled” and the “Control of gramineous weeds (in words)” value ([2]; post-emergence treatment, 500 g/ha) was “most of the gramineous weeds were controlled”. The “Control of gramineous weeds (in words)” value ([2]; pre-emergence treatment, 125 g/ha or more, FIG. 1) was “remarkable effect of controlling all of the gramineous weeds; also recorded: effectively controlled” and the “Control of large crabgrass (in words)” value (Large crabgrass [3]) was “almost completely”.
